Measurements taken from US20080248040A1, “Nucleic Acid Molecules Encoding Novel Human Low-Voltage Activated Calcium Channel Proteins, Designed-Alpha 1I-1 and Alpha 1I-2, Encoded Proteins and Methods of Use Thereof” (priority 2003, published 2008).

Legend:
[1] = target: T1, human calcium channel α1I subunit (α1I channel) (Homo sapiens, UniProt Q9P0X4, I1040V); assay: Calcium influx measured by FLIPR in B21 cells; type: cell-based; settings: for IC50: B21 cell induced by 0.1 uM tetracycline, mean ± S.E., n=3, read-out: IC50 for inhibition of calcium influx
T1 construct: expressed in transfected cells
Procedure: Intracellular calcium concentration was monitored by the FLIPR™ technique (Molecular Devices, Sunnyvale, Calif.). Briefly, the cells were seeded into black 96 well plates with clear bottoms at a density of 35,000 cells/well and cultured for 5 hr.

[2] = target: α1I T-type calcium channel (Homo sapiens, UniProt Q9P0X4, I1040V); assay: Whole-cell patch clamp (voltage-clamp) recordings on the B21 cell line
[3] = tested on: T-type currents in thalamic (ventrobasal complex) neurons; settings: physiologically relevant doses; Coulter et al. 1989; cited from earlier work
[4] = tested on: T-type Ca^2+ current in DRG neurons; settings: freshly dissected DRG neurons of adult rats; Todorovic and Lingle 1998; cited from earlier work

T1 sequence (Q9P0X4 1-1981 isoform Q9P0X4-3 I1005V): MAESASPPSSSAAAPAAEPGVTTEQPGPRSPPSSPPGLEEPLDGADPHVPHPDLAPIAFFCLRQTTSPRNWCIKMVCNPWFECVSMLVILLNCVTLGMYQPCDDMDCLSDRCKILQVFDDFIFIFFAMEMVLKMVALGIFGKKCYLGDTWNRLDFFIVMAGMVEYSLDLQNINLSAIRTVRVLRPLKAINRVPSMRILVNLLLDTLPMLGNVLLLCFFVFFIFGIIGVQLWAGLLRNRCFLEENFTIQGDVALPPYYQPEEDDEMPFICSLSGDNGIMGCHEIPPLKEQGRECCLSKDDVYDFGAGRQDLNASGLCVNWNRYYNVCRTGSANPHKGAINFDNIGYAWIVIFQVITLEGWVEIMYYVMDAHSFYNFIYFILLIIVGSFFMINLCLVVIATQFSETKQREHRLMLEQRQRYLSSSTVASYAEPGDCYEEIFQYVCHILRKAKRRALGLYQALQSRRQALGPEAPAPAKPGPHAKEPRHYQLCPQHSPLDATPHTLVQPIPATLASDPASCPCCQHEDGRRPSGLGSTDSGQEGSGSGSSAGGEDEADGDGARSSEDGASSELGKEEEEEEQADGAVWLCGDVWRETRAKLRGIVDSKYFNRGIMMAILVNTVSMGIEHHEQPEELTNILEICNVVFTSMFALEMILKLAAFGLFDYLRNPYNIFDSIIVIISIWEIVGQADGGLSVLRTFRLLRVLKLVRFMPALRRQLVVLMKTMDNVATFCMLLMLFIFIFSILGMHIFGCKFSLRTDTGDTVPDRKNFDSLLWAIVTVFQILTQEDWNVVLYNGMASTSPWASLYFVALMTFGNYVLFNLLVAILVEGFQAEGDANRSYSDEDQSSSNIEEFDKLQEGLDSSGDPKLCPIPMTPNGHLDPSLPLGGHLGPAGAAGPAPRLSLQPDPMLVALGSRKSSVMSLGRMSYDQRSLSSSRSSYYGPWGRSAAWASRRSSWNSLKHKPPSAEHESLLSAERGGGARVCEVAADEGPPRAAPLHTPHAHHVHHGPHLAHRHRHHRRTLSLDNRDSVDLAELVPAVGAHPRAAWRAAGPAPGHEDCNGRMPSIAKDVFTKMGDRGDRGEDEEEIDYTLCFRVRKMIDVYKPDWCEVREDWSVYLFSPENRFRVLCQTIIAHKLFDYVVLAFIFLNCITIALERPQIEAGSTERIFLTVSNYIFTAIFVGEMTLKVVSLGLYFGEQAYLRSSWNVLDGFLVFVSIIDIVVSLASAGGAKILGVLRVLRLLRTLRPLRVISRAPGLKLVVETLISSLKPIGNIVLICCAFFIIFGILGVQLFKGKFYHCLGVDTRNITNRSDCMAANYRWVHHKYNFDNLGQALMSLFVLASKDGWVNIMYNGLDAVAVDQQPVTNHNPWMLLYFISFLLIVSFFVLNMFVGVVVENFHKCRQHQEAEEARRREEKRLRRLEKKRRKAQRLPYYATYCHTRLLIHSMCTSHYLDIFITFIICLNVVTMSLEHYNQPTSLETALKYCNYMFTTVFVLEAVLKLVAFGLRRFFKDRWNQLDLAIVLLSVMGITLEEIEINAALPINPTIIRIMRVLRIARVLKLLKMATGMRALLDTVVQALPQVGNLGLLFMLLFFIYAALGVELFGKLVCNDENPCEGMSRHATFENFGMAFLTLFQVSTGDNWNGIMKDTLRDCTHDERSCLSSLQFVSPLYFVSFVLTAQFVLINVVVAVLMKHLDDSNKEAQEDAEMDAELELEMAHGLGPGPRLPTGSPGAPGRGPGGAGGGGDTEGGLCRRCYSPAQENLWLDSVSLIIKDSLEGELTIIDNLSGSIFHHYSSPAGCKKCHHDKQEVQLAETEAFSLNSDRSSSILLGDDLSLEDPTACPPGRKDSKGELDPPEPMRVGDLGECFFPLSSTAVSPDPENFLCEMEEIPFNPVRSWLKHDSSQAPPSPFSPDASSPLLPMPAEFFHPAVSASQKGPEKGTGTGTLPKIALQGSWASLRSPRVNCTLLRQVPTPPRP
Chain of α1I T-type calcium channel (Q9P0X4 1-1981 isoform Q9P0X4-3 I1005V): as above

IC50 [1] [µM]	Compound	effect on T-type currents in thalamic neurons (in words) [3]	other results
	[Ca+2] [Ca^2+]		EC50 ([1]; B21 cells induced by 0.1 μM tetracycline, read-out: EC50 of Ca^2+ influx after Ca^2+ addition): 1000 µM
9.51 ± 0.788	COCCOC(=O)C1=C(C)NC(C)=C(C(=O)OC(C)C)C1c1cccc([N+](=O)[O-])c1 (centres unmarked) [Nimodipine]		
1 ± 0.109	O=c1[nH]c2ccccc2n1C1CCN(CCCC(c2ccc(F)cc2)c2ccc(F)cc2)CC1 [Pimozide]		% Inhibition (Ave ± SEM) of peak calcium current ([2]; 100 nM antagonist, −100 mV holding potential): 32 ± 2%; potency estimated from few doses ([2]; read-out: Est IC50): 0.216 µM
	CC1(C)OC(=O)NC1=O [dimethadione]	partially depress	
	CCC1(C)CC(=O)NC1=O (centres unmarked) [ethosuximide]	partially depress	effect on T-type Ca^2+ current in DRG neurons (in words) [4]: fully block
